“And” between values parts separate entries of the source, which are not always exact repeats. Equal values may be shown once. The source made the active and inactive calls.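 Rule for the calls: active = compounds giving half or more protection of infected cells from virus-caused growth loss, again on retest; inactive = the rest.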
Test system: CEM cells HIV-1 protection, formazan growth assay
Experiment: NCI AIDS Antiviral Assay
Details: for IC50: measured here: growth of uninfected CEM cells
Summary of the method: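 Steps: treat uninfected and HIV-1-infected human CEM cells at five drug levels; quantify growth by soluble formazan; retest any compound reaching 50% protection; classify actives from the retest.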

SMILES	outcome	EC50 [µM]	IC50
COc1ccc2cc1Oc1ccc(cc1)C[C@@H]1c3cc(c(OC)cc3CCN1C)Oc1c(OC)c(OC)cc3c1[C@@H](C2)N(C)CC3	inactive		
COc1cc(N=Nc2ccccc2)cc(/C=N/NC(=O)c2cccnc2)c1O		> 661	60.3 µM
COc1ccnc(C(=O)N2CCCC2C(=O)O)c1 (stereo not given)		> 200	> 200 µM
COc1cc2c(cc1O)[C@H](Cc1ccc(Oc3cc(C[C@H]4c5cc(OC)c(OC)cc5CCN4C)ccc3OC)cc1)NCC2	inactive		
CCOC(=O)/C(=C\c1cccc(OC)c1)C(C)=O		> 525	95.5 µM
CC(C)(NC(=O)c1ccccc1SC(=O)CCCC[n+]1ccccc1)C(N)=O		1	50.1 µM
O=C(Nc1ccc(N=Nc2ccc(S(=O)(=O)O)cc2)cc1)c1ccc(N=Nc2c(S(=O)(=O)O)cc(O)c3c(NC(=O)c4ccccc4)cc(S(=O)(=O)O)cc23)cc1	active		
CCOC(=O)CCC(NC(=O)c1ccc(Oc2nc3c(N)cc(C(F)(F)F)cc3nc2-c2ccccc2)cc1)C(=O)OCC (stereo not given)		> 200	112 µM
O=C1Nc2ccccc2NC1C1OC(c2ccccc2)=CC1=O (stereo not given)		> 200	97.7 µM
CCCCCCC(C)CCCCCCCCCCC(=O)OCC(COP(=O)([O-])OCC[N+](C)(C)C)OC(=O)CCCCCCCCCCC(C)CCCCCC (stereo not given)	inactive		
COc1cc(Br)c2nsnc2c1		> 29.5	> 29.5 µM
Cc1cc(NS(=O)(=O)c2ccc(N=c3c4ccccc4n(-c4ccccc4)c4ccccc34)cc2)no1	inactive		
COc1ccc(N/N=C/C2=CC(C)(C)C(C#N)(C#N)C(O)=C2C#N)cc1		> 200	28.2 µM
Cc1cccc(-n2c(C)nc3ccc(NC(=S)Nc4ccccc4)cc3c2=O)c1		> 200	110 µM
CN(C)CCc1ccnc2nc(-c3ccc4ccccc4c3)cn12		> 200	32.4 µM
CC1(C)C(=O)N(c2ccccc2)C(=O)N1c1nc2ccccc2[nH]1		> 155	> 155 µM
CC(=O)OCc1cc(OC(C)=O)c2cc3c(OC(C)=O)cccc3c(OC(C)=O)c2c1		> 200	28.2 µM
OCCCN1CCCC12CCCCC2		> 200	> 200 µM
c1ccc(OCc2nnc3n2N=C(c2ccccc2)CS3)cc1	inactive		
CCN1CC(C)Cn2c(=S)[nH]c3cc(Br)cc1c32 (stereo not given)		5.01	138 µM
CO/N=C1\CC(NC(=O)CNC(=O)OC(C)(C)C)c2ccsc21 (stereo not given)		> 200	> 200 µM
CCCCc1ccc(-n2sc3ncc(C)cc3c2=O)cc1		1.23	21.9 µM

SMILES	outcome	EC50 [µM]	IC50
Cc1nn(C2OC(CO)C(O)C(F)C2O)c(=O)[nH]c1=O (stereo not given)		> 200	> 200 µM
CCCCC1Sc2cc(OC)cc3nnn(c23)C1=O (stereo not given)		> 200	> 200 µM
COC1=C(CC(C)=O)C(=O)c2c(O)c(CO)cc(O)c2C1=O	inactive		
COP(=O)(OC)/C(C#N)=C/c1ccco1		> 1100	832 µM
c1ccc(C2OC3(CCC[C@H]4C[C@H]43)O[C@H]2c2ccccc2)cc1 (stereo not given in full)	inactive		
OC[C@H]1S[C@H](c2ccccc2)C[C@H]1O		> 200	> 200 µM
COc1ccc(N=Cc2cc(OC)c(OC)c(OC)c2)cc1		> 33.1	> 33.1 µM
Cc1cc(-c2[nH]c(C(=O)O)cc2I)on1		> 200	> 200 µM
CCOC(=O)CN1C(=O)c2c(NC(=O)C(=O)O)cccc2S1(=O)=O		> 200	> 200 µM
CC(=O)OCC1(CNc2nc(N)ncc2C#N)CC(CCc2ccccc2)C1 (stereo not given)		> 200	17.4 µM
CCOC(=O)C(Cc1ccccc1)C(=O)OCC		> 105	> 105 µM
CN(NC(=O)/C(=C/C=C/c1ccccc1)NC(=O)c1ccccc1)c1cnn(-c2ccccc2)c(=O)c1Cl		> 200	3.24 µM
N=c1oc2ccccc2cc1-c1nc2ccccc2[nH]1	inactive		
CCCCCCCCCCN(CCCCCCCCCC)CC(=O)Nc1ccc(S(=O)(=O)c2ccc(NC(=O)CN(CCCCCCCCCC)CCCCCCCCCC)cc2)cc1		> 50.1	3.02 µM
CNC(=O)OCC1=CC(=O)C(C)=CC1=O		> 60.3	5.5 µM
O=C(Nc1ccc2cc(S(=O)(=O)O)ccc2c1)c1ccc(N=Nc2cc(S(=O)(=O)O)c3ccccc3c2O)cc1		> 50.1	> 50.1 µM
Cc1ccc(S(=O)(=O)N2c3ccccc3[C@H]3CCC=C[C@H]32)cc1		> 100	6.92 µM
Cc1ccc(S(=O)(=O)NC(=O)Nc2sc(=S)c3c(c2C#N)CCCC3)cc1		> 309	58.9 µM
O=[N+]([O-])c1ccc(N/N=C2\C=CCCC2)c([N+](=O)[O-])c1		> 200	> 200 µM
O=C1C2=C(CC3C(C2)C3(Br)Br)C(=O)C2=C1CC1C(C2)C1(Br)Br (stereo not given)		> 9.33	> 9.33 µM
COC(=O)C1=CON2C3CC4CC(C3)CC(C4)C12C (stereo not given)		> 200	135 µM
O=C(O)c1cc2c(cc1C(=O)O)C(=O)C(c1ccccc1)C2=O		> 200	> 200 µM

SMILES	outcome	EC50 [µM]	IC50
CC1(C)CC(=O)C(/C=N/c2nc(-c3cccc([N+](=O)[O-])c3)cs2)=C(O)C1		> 200	8.32 µM
CC(C)C(NCc1c(O)ccc2c(-c3ccccc3)cc(=O)oc12)C(=O)O (stereo not given)		> 200	> 200 µM
S=C(S)N1CCN(c2cccc(Cl)c2)CC1		> 200	182 µM
c1csc(-c2ccc(-c3ccc(-c4ccc(-c5cccs5)s4)s3)s2)c1		> 200	> 200 µM
COc1cc(Nc2c3ccccc3nc3ccccc23)ccc1NS(C)(=O)=O		> 200	2.4 µM
OC1/C(=C/c2ccccc2)CNC/C1=C\c1ccccc1 (stereo not given)		> 129	79.4 µM
O=C(CCc1cccc(O)c1)NCCCNC(=O)CCc1cccc(O)c1		> 200	> 200 µM
COc1ccc(C2[C@@H](Cl)C(=O)N2c2ccc(OC)cc2)cc1 (stereo not given in full)	inactive		
CC(=O)c1cccn1/C=C(\OC(=O)OC(C)(C)C)c1ccc[nH]1		155	162 µM
NNC(=O)CCCCCCCC(=O)O		> 200	> 200 µM
c1ccc2c(c1)c1c(n2CCOCCCN2CCCCC2)CCCC1		> 200	5.37 µM
COc1ccc(-c2cc(-c3ccco3)c(C#N)c(=O)[nH]2)cc1		> 24.5	> 24.5 µM
CCCCCCCCOP(=O)(O)OP(=O)(O)OCC1OC(n2ccc(N)nc2=O)C(O)C1O (stereo not given)		> 200	> 200 µM
Cc1ccc(NC(=O)CCCC(=O)CC(=O)c2ccc(Br)cc2)cc1		> 309	> 309 µM
Cn1ncc2c(N(N)CCO)nc(-c3ccc([N+](=O)[O-])o3)nc21		> 200	10.7 µM
CC(Cl)CN1c2ccccc2Sc2ccc(Cl)cc21 (stereo not given)		> 200	132 µM
O=C(Nc1nc(=S)c2c(ncn2CCOC(=O)c2ccccc2)[nH]1)c1ccccc1		> 61.7	> 61.7 µM
COc1ccc2nc(/C(N)=C\C#N)ccc2c1		> 200	41.7 µM
CC(=O)O[C@@H]1CC[C@]2(C)C3CC[C@]4(C)C(C(C)CCc5nc6ccccc6n5C(C)=O)CCC4C3[C@H](OC(C)=O)C[C@@H]2C1 (stereo not given in full)		> 50.1	3.16 µM
CC1(CF)SCc2nc3ccccc3n21 (stereo not given)		> 200	> 200 µM
O=C(O)N1CCc2c(sc3ccccc23)C1		> 95.5	> 95.5 µM
Oc1ccc(C[C@@H]2CN[C@H](Cc3ccc(O)c(Br)c3)CN2)cc1		> 200	> 200 µM

SMILES	outcome	EC50 [µM]	IC50
Cn1c(N2CCCC2)c(C=O)c(=O)n(C)c1=O	inactive		
O=C(CCc1cc(-c2ccccc2)n[nH]1)Nc1ccccc1[N+](=O)[O-]	inactive		
C(#C[C@@]12CCC[C@@H]1NCO2)c1ccc2c(c1)OCO2		> 200	50.1 µM
COc1cc(CC2c3cc(OC)c(OC)cc3CCN2C)c(Oc2cc3c(cc2OC)-c2c(OC)c(OC)c(OC)c4c2C(C3)N(C)CC4)cc1OC (stereo not given)	inactive		
Cc1nc2c(Br)cc(Br)cc2c(=O)n1-c1ccccc1N		> 200	67.6 µM
O=C1OCCOCCSCCOCCOC(=O)c2cccc1n2		> 537	37.2 µM
O=S(=O)(CC#CCO)c1cccc2ccccc12	inactive		
CC1C2=C(CC(C)(C)CC2=O)NC2=C1C(=O)CC(C)(C)C2		> 200	166 µM
O=[N+]([O-])c1ccc2c(c1)NC(O)C(O)N2 (stereo not given)		> 200	174 µM
C[C@H]1c2c([nH]c(=O)[nH]c2=O)O[C@@H]1c1ccccc1		> 200	> 200 µM
CCOC(=O)/C(=C/c1ccc(N(CCC#N)CCC#N)cc1C)NC(=O)/C=C/c1ccccc1	inactive		
[N-]=[N+]=Nc1c(N2CCOCC2)c(Cl)nc2ccccc12		> 200	55 µM
CCOC(=O)C(=CNC(=S)Nc1ccc(Cl)c(Cl)c1)C(=O)OCC		> 200	34.7 µM
CC(=O)[C@H]1CC[C@H]2[C@@H]3CCC4=CC(=O)CC[C@]4(C)[C@H]3CC[C@]12C		> 200	85.1 µM and 91.2 µM
CC1CC(C(=O)CC2CC(=O)NC(=O)C2)C(=O)[C@@H](C)C1 (stereo not given in full)	inactive		
[N-]=[N+]=NC1C2CC3CC(C2)CC1C3 (stereo not given)		> 77.6	> 77.6 µM
CN1CCN(C2=Nc3ccccc3Cc3ccccc32)CC1		> 170	64.6 µM
CCN(CC)CCOc1ccc(/C=C(\C#N)c2ccc(N(CC)CC)cc2)cc1		> 200	0.891 µM
Cc1ccc(NC(=O)CCc2nnc3s/c(=C\c4cccc([N+](=O)[O-])c4)c(=O)n23)cc1		> 1.74	> 1.74 µM
COC1/C=C/OC2(C)Oc3c(C)c(O)c4c(O)c(c(/C=N\N(C)C56CC7CC(CC(C7)C5)C6)c(O)c4c3C2=O)NC(=O)C(C)=C/C=C/C(C)C(O)C(C)C(O)C(C)C(OC(C)=O)C1C (stereo not given)		> 200	7.41 µM
Cc1cccc2c1N(C(=O)/C=C\C(=O)O)C(c1c(C)[nH]c3ccccc13)C2 (stereo not given)		> 138	75.9 µM
Cc1ccccc1C=C1C(=O)NC(=O)NC1=O		> 407	> 407 µM

From PubChem BioAssay AID179 (DTP/NCI, 2004)
